Earlier results in patent publication US9061061B2, “Method of treating dysglycemia and glucose excursions” (ORX PHARMACEUTICAL CORPORATION, priority 2008, dated 2015).

Details: single 850 mg tablet

**Q.** With `CN(C)C(=N)N=C(N)N` [metformin] as the molecule, how does the “lower peak plasma concentration (Cmax) with food compared to fasting” value read?
**A.** The value was about 40%.

**Q.** And the “prolongation of time to peak plasma concentration (Tmax) with food” value?
**A.** The value was 35 min.
